± gives the expanded uncertainty stated by the source.
Experiment: mn = molality of the nth substance listed, in mol/kg
Details: 101 kPa, Liquid; for viscosity: Capillary tube (Ostwald / Ubbelohde) method; for mass density: Vibrating tube method

**Q.** What does the source list for `O=C(O)c1cccnc1` [3-carboxylpyridine] + O?
**A.** viscosity (298.15 K, m1 = 0.0202): 0.8951 ± 0.022 mPa·s; viscosity (298.15 K, m1 = 0.0365): 0.8988 ± 0.022 mPa·s; viscosity (298.15 K, m1 = 0.0529): 0.9015 ± 0.022 mPa·s; viscosity (298.15 K, m1 = 0.0695): 0.905 ± 0.022 mPa·s; viscosity (298.15 K, m1 = 0.0863): 0.9088 ± 0.022 mPa·s; viscosity (298.15 K, m1 = 0.1032): 0.9119 ± 0.022 mPa·s; mass density (298.15 K, m1 = 0.0202): 997.92 ± 1.1 kg/m3; mass density (298.15 K, m1 = 0.0365): 998.6 ± 1.2 kg/m3; mass density (298.15 K, m1 = 0.0529): 999.27 ± 1.2 kg/m3; mass density (298.15 K, m1 = 0.0695): 999.95 ± 1.2 kg/m3; mass density (298.15 K, m1 = 0.0863): 1000.62 ± 1.2 kg/m3; mass density (298.15 K, m1 = 0.1032): 1001.3 ± 1.2 kg/m3; viscosity (308.15 K, m1 = 0.0202): 0.7224 ± 0.021 mPa·s; viscosity (308.15 K, m1 = 0.0365): 0.725 ± 0.021 mPa·s; viscosity (308.15 K, m1 = 0.0529): 0.7275 ± 0.021 mPa·s; viscosity (308.15 K, m1 = 0.0695): 0.7308 ± 0.021 mPa·s; viscosity (308.15 K, m1 = 0.0863): 0.734 ± 0.021 mPa·s; viscosity (308.15 K, m1 = 0.1032): 0.7368 ± 0.022 mPa·s; mass density (308.15 K, m1 = 0.0202): 994.89 ± 1.1 kg/m3; mass density (308.15 K, m1 = 0.0365): 995.55 ± 1.1 kg/m3; mass density (308.15 K, m1 = 0.0529): 996.21 ± 1.1 kg/m3; mass density (308.15 K, m1 = 0.0695): 996.87 ± 1.2 kg/m3; mass density (308.15 K, m1 = 0.0863): 997.52 ± 1.2 kg/m3; mass density (308.15 K, m1 = 0.1032): 998.17 ± 1.2 kg/m3; viscosity (318.15 K, m1 = 0.0202): 0.5972 ± 0.021 mPa·s; viscosity (318.15 K, m1 = 0.0365): 0.5992 ± 0.021 mPa·s; viscosity (318.15 K, m1 = 0.0529): 0.601 ± 0.021 mPa·s; viscosity (318.15 K, m1 = 0.0695): 0.6051 ± 0.021 mPa·s; viscosity (318.15 K, m1 = 0.0863): 0.6074 ± 0.021 mPa·s; viscosity (318.15 K, m1 = 0.1032): 0.6094 ± 0.021 mPa·s; mass density (318.15 K, m1 = 0.0202): 991.06 ± 1.1 kg/m3; mass density (318.15 K, m1 = 0.0365): 991.69 ± 1.1 kg/m3; mass density (318.15 K, m1 = 0.0529): 992.33 ± 1.1 kg/m3; mass density (318.15 K, m1 = 0.0695): 992.96 ± 1.1 kg/m3; mass density (318.15 K, m1 = 0.0863): 993.59 ± 1.1 kg/m3; mass density (318.15 K, m1 = 0.1032): 994.23 ± 1.2 kg/m3
